# Reference: patent US10532985B2, “Heterocycle and carbocycle derivatives having TRKA inhibitory activity” (Shionogi & Co., Ltd., priority 2014, dated 2020)
# Target: T1, human TrkA (Homo sapiens, UniProt P04629)
# T1 construct: purchased Lifetechnologies PV3144
# Experiment: Test Example 2: Human TrkA Inhibition Assay
# Type: biochemical
# Conditions: Test Example 2; human TrkA 2.5 nmol/L, ATP 500 μmol/L, 90 min at room temperature; read-out: TrkA inhibitory activity IC50
# Procedure: After the incubation for 90 min at room temperature, ten μL of termination buffer (100 mmol/L HEPES, 40 mmol/L ethylenediaminetetraacetic acid (EDTA), 10 mmol/L magnesium chloride, 0.003 vol % Brij-35, 0.004 vol % Tween20, 1 mmol/L DTT and 0.16 vol % Coating Reagent 3) was added in each well to stop the enzyme reaction. Fluorescent intensities (FI) of phosphorylated and non-phosphorylated fluorescent substrates were measured by LabChip EZReader II (Caliper LifeSciences, Inc.) and conversion ratio (CR) was calculated by the following formula-1. The CR in the well applied with DMSO alone was used as a negative control and the CR in the well without applying TrkA was used as a positive control. The inhibitory effect of each compound on TrkA phosphorylation was calculated by the following formula-2. CR (%)=(FI of phosphorylated substrate/(FI of phosphorylated substrate+FI of non-phosphorylated substrate))×100 (Formula-1) Inhibitory effect on TrkA phosphorylation (%)=(1−(CR in compound treated well−CR in positive control)/(CR in negative control−CR in positive control))×100. (Formula-2)
# T1 sequence (P04629 33-796): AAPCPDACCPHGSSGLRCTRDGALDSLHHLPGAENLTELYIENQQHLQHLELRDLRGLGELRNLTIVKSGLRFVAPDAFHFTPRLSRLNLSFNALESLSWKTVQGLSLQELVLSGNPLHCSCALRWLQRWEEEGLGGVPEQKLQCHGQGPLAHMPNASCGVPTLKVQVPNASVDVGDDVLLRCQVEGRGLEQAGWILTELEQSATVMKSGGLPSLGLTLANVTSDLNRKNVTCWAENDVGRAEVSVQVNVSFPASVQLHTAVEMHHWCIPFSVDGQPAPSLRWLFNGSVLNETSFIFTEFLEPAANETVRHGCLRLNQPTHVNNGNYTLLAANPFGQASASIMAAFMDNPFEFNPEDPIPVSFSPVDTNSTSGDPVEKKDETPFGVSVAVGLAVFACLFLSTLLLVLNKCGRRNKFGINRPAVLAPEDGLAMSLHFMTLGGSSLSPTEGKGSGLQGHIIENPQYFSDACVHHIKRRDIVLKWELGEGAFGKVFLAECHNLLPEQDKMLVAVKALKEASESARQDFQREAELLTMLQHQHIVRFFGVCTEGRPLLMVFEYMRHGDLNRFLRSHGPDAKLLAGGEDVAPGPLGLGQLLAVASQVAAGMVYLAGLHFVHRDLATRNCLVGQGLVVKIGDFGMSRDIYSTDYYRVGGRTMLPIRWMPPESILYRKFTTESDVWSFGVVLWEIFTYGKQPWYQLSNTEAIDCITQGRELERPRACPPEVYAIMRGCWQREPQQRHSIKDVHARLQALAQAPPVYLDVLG
row,IC50,Structure (SMILES)
1,21 nM,COCC(CC#N)N1C[C@@H](NC(=O)Nc2c(C)c(-c3cnn(C)c3)nn2-c2ccccc2)[C@H](c2ccc(F)c(F)c2)C1 (some centres unmarked) [Compound I-93]
2,7000 nM,Cc1c(-c2cnn(C)c2)nn(-c2ccccc2)c1NC(=O)N[C@@H]1CC(O)C[C@H]1c1ccccc1 (some centres unmarked) [Compound I-168]
3,4200 nM,Cc1c(-c2cnn(C)c2)nn(-c2ccccc2)c1NC(=O)N[C@@H]1CC(=O)C[C@H]1c1ccccc1 (racemic) [Compound I-161]

# Same assay, conditions: human TrkA inhibition, Test Example 2; class symbols A/B/C; read-out: IC50_nM
row,Structure (SMILES),IC50
1,COCCN1C[C@@H](NC(=O)Nc2c(C)c(-c3cnn(C)c3)nn2-c2ccccc2)[C@H](c2cccc(-c3cccc(C#N)c3)c2)C1 (racemic) [Compound I-52],100 to 1000 nM
2,COCCCN1[C@@H]2CC[C@H]1[C@@H](c1ccc(F)c(F)c1)[C@@H]2NC(=O)Nc1c(C)c(-c2cnn(C)c2)nn1-c1ccccc1 (racemic) [Compound I-70],> 1000 nM
3,Cc1c(-c2cnn(C)c2)nn(-c2ccccc2)c1NC(=O)N[C@@H]1C[N+](C)(C)C[C@H]1c1ccc(F)c(F)c1 [Compound I-25],> 1000 nM
4,COCCN1C[C@@H](NC(=O)Nc2c(C)c(OCC(C)(C)O)nn2-c2ccccc2)[C@H](C2CCCCC2)C1 (racemic) [Compound I-10],> 1000 nM
5,COCCN1C[C@@H](NC(=O)Nc2c(C)c(-c3cnn(C)c3)nn2-c2ccccc2)[C@H](c2cccc(-c3ccc(C#N)cc3)c2)C1 (racemic) [Compound I-50],< 100 nM
6,Cc1c(-c2cnn(C)c2)nn(-c2ccccc2)c1NC(=O)N[C@@H]1CN(Cc2cscn2)C[C@H]1c1ccc(F)c(F)c1 [Compound I-90],< 100 nM
7,Cc1c(-c2cnn(C)c2)nn(-c2ccccc2)c1NC(=O)N[C@@H]1CN(C(=O)OC(C)(C)C)C[C@H]1c1ccccc1 (racemic) [Compound I-5],> 1000 nM
8,Cc1c(-c2cnn(C)c2)nn(-c2ccccc2)c1NC(=O)N[C@@H]1CN(C2CC(F)(F)C2)C[C@H]1c1ccc(F)c(F)c1 [Compound I-38],> 1000 nM
9,CC(=O)N1C[C@@H](NC(=O)Nc2c(C)c(-c3cnn(C)c3)nn2-c2ccccc2)[C@H](c2ccc(F)c(F)c2)C1 [Compound I-28],> 1000 nM
10,Cc1c(-c2cnn(C)c2)nn(-c2ccccc2)c1NC(=O)N[C@@H]1CN(Cc2ccon2)C[C@H]1c1ccc(F)c(F)c1 [Compound I-98],< 100 nM
11,COCCN1C[C@@H](NC(=O)Nc2c(C)c(-c3cnn(C)c3)nn2-c2ccccc2)[C@H](c2ccc(C(=O)OC)cc2)C1 (racemic) [Compound I-20],100 to 1000 nM
12,Cc1c(-c2cnn(C)c2)nn(-c2ccccc2)c1NC(=O)N[C@@H]1CN(CCNC(=O)OC(C)(C)C)C[C@H]1c1ccc(F)c(F)c1 [Compound I-31],> 1000 nM
13,COC(=O)NCCN1C[C@@H](NC(=O)Nc2c(C)c(-c3cnn(C)c3)nn2-c2ccccc2)[C@H](c2ccc(F)c(F)c2)C1 [Compound I-41],> 1000 nM
14,Cc1c(-c2cnn(C)c2)nn(-c2ccccc2)c1NC(=O)N[C@@H]1CN(CC2CCCO2)C[C@H]1c1ccc(F)c(F)c1 (some centres unmarked) [Compound I-24],100 to 1000 nM
15,COCCN1C[C@@H](NC(=O)Nc2c(C)c(-c3cnn(C)c3)nn2-c2ccccc2)[C@H](c2cccc(-c3cccc(C(=O)OC)c3)c2)C1 (racemic) [Compound I-57],100 to 1000 nM
16,CCN1[C@@H]2CC[C@H]1[C@@H](c1ccc(F)c(F)c1)[C@@H]2NC(=O)Nc1c(C)c(-c2cnn(C)c2)nn1-c1ccccc1 (racemic) [Compound I-69],> 1000 nM
17,Cc1c(-c2cnn(C)c2)nn(-c2ccccc2)c1NC(=O)N[C@@H]1CN(CO)C[C@H]1c1ccc(F)c(F)c1 (racemic) [Compound I-67],> 1000 nM
18,COCCN1C[C@@H](NC(=O)Nc2c(C)c(-c3cnn(C)c3)nn2-c2ccccc2)[C@H](c2cccc(-c3ccc(C#N)s3)c2)C1 (racemic) [Compound I-53],> 1000 nM
19,COCCN1C[C@@H](NC(=O)Nc2c(C)c(-c3cnn(C)c3)nn2-c2ccccc2)[C@H](c2cccc(-c3cncnc3)c2)C1 (racemic) [Compound I-59],> 1000 nM
20,COCCN1C[C@@H](NC(=O)Nc2c(C)c(-c3cnn(C)c3)nn2-c2ccccc2)[C@H](c2cccc(-c3ccccc3)c2)C1 (racemic) [Compound I-48],< 100 nM
21,C=C1C[C@@H](NC(=O)Nc2c(C)c(-c3cnn(C)c3)nn2-c2ccccc2)[C@H](c2ccc(F)cc2)C1 (racemic) [Compound I-65],< 100 nM
22,Cc1c(-c2cnn(C)c2)nn(-c2ccccc2)c1NC(=O)N[C@@H]1CN(CCCS(C)(=O)=O)C[C@H]1c1ccc(F)c(F)c1 [Compound I-64],> 1000 nM
23,COCCN1C[C@@H](NC(=O)N(C)c2c(C)c(-c3cnn(C)c3)nn2-c2ccccc2)[C@H](c2ccc(F)c(F)c2)C1 [Compound I-32],> 1000 nM
24,Cc1c(-c2cnn(C)c2)nn(-c2ccccc2)c1NC(=O)N[C@@H]1CN(Cc2ccccc2)[C@H]1c1ccccc1 (racemic) [Compound I-11],> 1000 nM
25,Cc1c(-c2cnn(C)c2)nn(-c2ccccc2)c1NC(=O)N[C@@H]1CN(CC(F)(F)F)C(=O)[C@H]1c1ccc(F)c(F)c1 [Compound I-74],> 1000 nM

# The remaining lines, values ahead:
row,IC50,Structure (SMILES)
1,100 to 1000 nM,COCC(C(N)=O)N1C[C@@H](NC(=O)Nc2c(C)c(-c3cnn(C)c3)nn2-c2ccccc2)[C@H](c2ccc(F)c(F)c2)C1 (some centres unmarked) [Compound I-133]
2,> 1000 nM,COCC1(O)C[C@@H](NC(=O)Nc2c(C)c(-c3cnn(C)c3)nn2-c2ccccc2)[C@H](c2ccccc2)C1 (some centres unmarked) [Compound I-164]
3,> 1000 nM,Cc1c(-c2cnn(C)c2)nn(-c2ccccc2)c1NC(=O)N[C@@H]1CN(C2CCCC2)C[C@H]1c1ccc(F)c(F)c1 [Compound I-166]
4,100 to 1000 nM,COCOC1C[C@@H](NC(=O)Nc2c(C)c(-c3cnn(C)c3)nn2-c2ccccc2)[C@H](c2ccccc2)C1 (relative stereo) [Compound I-121]
5,> 1000 nM,Cc1c(-c2cnn(C)c2)nn(-c2ccccc2)c1NC(=O)N[C@@H]1CN(C#N)C[C@H]1c1ccc(F)c(F)c1 [Compound I-173]
6,100 to 1000 nM,COCCN1C[C@@H](NC(=O)Nc2c(C)c(-c3cnn(C)c3)nn2-c2ccccc2)[C@H](c2cc3ccccc3o2)C1 (racemic) [Compound I-134]
7,100 to 1000 nM,COCC(CN)N1C[C@@H](NC(=O)Nc2c(C)c(-c3cnn(C)c3)nn2-c2ccccc2)[C@H](c2ccc(F)c(F)c2)C1 (some centres unmarked) [Compound I-131]
8,< 100 nM,Cc1c(-c2cnn(C)c2)nn(-c2ccccc2)c1NC(=O)N[C@@H]1CN(C(CO)c2ccco2)C[C@H]1c1ccc(F)c(F)c1 (some centres unmarked) [Compound I-108]
9,> 1000 nM,COCCN1C[C@@H](NC(=O)Nc2c(C)c(-c3cnn(C)c3)nn2-c2ccccc2)[C@H](c2nc3ccccc3o2)C1 (racemic) [Compound I-156]
10,< 100 nM,CCC1C[C@@H](NC(=O)Nc2c(C)c(-c3cnn(C)c3)nn2-c2ccccc2)[C@H](c2ccccc2)C1 (some centres unmarked) [Compound I-103]
11,100 to 1000 nM,Cc1c(-c2cnn(C)c2)nn(-c2ccccc2)c1NC(=O)N[C@@H]1CN(Cc2ccoc2)C[C@H]1c1ccc(F)c(F)c1 [Compound I-118]
12,> 1000 nM,COCCN1C[C@@H](NC(=O)Nc2c(C)c(-c3cnn(C)c3)nn2-c2ccccc2)[C@H](c2cccc(N(C)C)c2)C1 (racemic) [Compound I-171]
13,> 1000 nM,COCCN1C[C@@H](NC(=O)Nc2c(C)c(-c3cnn(C)c3)nn2-c2ccccc2)[C@H](c2ccc3cccnc3c2)C1 (racemic) [Compound I-150]
14,> 1000 nM,Cc1c(-c2cnn(C)c2)nn(-c2ccccc2)c1NC(=O)N[C@@H]1CC(C)(O)C[C@H]1c1ccccc1 (some centres unmarked) [Compound I-154]
15,> 1000 nM,COCCN1C[C@@H](NC(=O)Nc2c(C)c(-c3cnn(C)c3)nn2-c2ccccc2)[C@H](c2ccc3nccn3c2)C1 (racemic) [Compound I-165]
16,100 to 1000 nM,COCC(CNOC)N1C[C@@H](NC(=O)Nc2c(C)c(-c3cnn(C)c3)nn2-c2ccccc2)[C@H](c2ccc(F)c(F)c2)C1 (some centres unmarked) [Compound I-113]
17,> 1000 nM,COCCN1C[C@@H](NC(=NOC)Nc2c(C)c(-c3cnn(C)c3)nn2-c2ccccc2)[C@H](c2ccccc2)C1 [Compound I-144]
18,> 1000 nM,Cc1c(-c2cnn(C)c2)nn(-c2ccccc2)c1NC(=O)N[C@@H]1CN(C2CCCCC2)C[C@H]1c1ccc(F)c(F)c1 [Compound I-143]
19,100 to 1000 nM,CNC(=O)C(COC)N1C[C@@H](NC(=O)Nc2c(C)c(-c3cnn(C)c3)nn2-c2ccccc2)[C@H](c2ccc(F)c(F)c2)C1 (some centres unmarked) [Compound I-137]
20,< 100 nM,COCC(CCl)N1C[C@@H](NC(=O)Nc2c(C)c(-c3cnn(C)c3)nn2-c2ccccc2)[C@H](c2ccc(F)c(F)c2)C1 (some centres unmarked) [Compound I-99]
21,> 1000 nM,COCC(CN1CCOCC1)N1C[C@@H](NC(=O)Nc2c(C)c(-c3cnn(C)c3)nn2-c2ccccc2)[C@H](c2ccc(F)c(F)c2)C1 (some centres unmarked) [Compound I-158]
22,100 to 1000 nM,COCC(CN(C)C)N1C[C@@H](NC(=O)Nc2c(C)c(-c3cnn(C)c3)nn2-c2ccccc2)[C@H](c2ccc(F)c(F)c2)C1 (some centres unmarked) [Compound I-115]
23,100 to 1000 nM,Cc1c(-c2cnn(C)c2)nn(-c2ccccc2)c1NC(=O)N[C@@H]1CN(C2CCC2)C[C@H]1c1ccc(F)c(F)c1 [Compound I-125]
24,> 1000 nM,Cc1c(-c2cnn(C)c2)nn(-c2ccccc2)c1NC(=O)N[C@@H]1CN(C2COC(=O)C2)C[C@H]1c1ccc(F)c(F)c1 (some centres unmarked) [Compound I-152]
25,< 100 nM,COCC(CCO)N1C[C@@H](NC(=O)Nc2c(C)c(-c3cnn(C)c3)nn2-c2ccccc2)[C@H](c2ccc(F)c(F)c2)C1 (some centres unmarked) [Compound I-105]
